Results from BindingDB's records for doi:10.1016/s0968-0896(01)00282-6 (Purdue University, 2002).
pIC50: −log10 of the molar value.

target: T1, Gag-Pol polyprotein [588-1027]/[588-1147] (Human immunodeficiency virus 1, UniProt P04585); experiment: HIV-1 RT Assay; conditions: pH 7.9
T1 construct: 588-1027; 588-1147

SMILES	pIC50
COC(=O)CCC/C=C\c1cc(C)c(OC)c(C(=O)OC)c1 [Alkenyldiarylmethane (ADAM) 10b]	4.05
COC(=O)CCCC#Cc1cc(C)c(OC)c(C(=O)OC)c1 [methyl 2-methoxy-5-(6-methoxy-6-oxohex-1-yn-1-yl)-3-methylbenzoate]	4.00
COC(=O)CCCC=C(c1ccc(OC)c(Cl)c1)c1ccc(OC)c(Cl)c1 [Alkenyldiarylmethane (ADAM) 9b]	4.00
COC(=O)CCC/C(=C\c1ccc(OC)c(Cl)c1)c1ccc(OC)c(Cl)c1 [methyl (5E)-5,6-bis(3-chloro-4-methoxyphenyl)hex-5-enoate]	4.00
COC(=O)CCC/C=C(/c1cc(C)c(OC)c(C(=O)OC)c1)c1cc(Cl)c(OC)c(C(=O)OC)c1 [Alkenyldiarylmethane (ADAM) 4b]	6.29
COC(=O)CCCCC(=O)c1cc(C)c(OC)c(C(=O)OC)c1 [Methyl 6-[4-methoxy-5-(methoxycarbonyl)-3-methylphenyl]-6-oxohexanoate]	4.00
COC(=O)CCC/C=C/c1cc(C)c(OC)c(C(=O)OC)c1 [methyl 2-methoxy-5-[(1E)-6-methoxy-6-oxohex-1-en-1-yl]-3-methylbenzoate]	4.00
COC(=O)CCC/C=C(/c1ccc(OC)c(C(=O)OC)c1)c1cc(Cl)c(OC)c(C(=O)OC)c1 [Alkenyldiarylmethane (ADAM) 5b]	6.23
COC(=O)CCC/C=C(/c1ccc(OC)c(OC)c1)c1cc(C)c(OC)c(C(=O)OC)c1 [Methyl (5Z)-6-(3,4-dimethoxyphenyl)-6-[4-methoxy-3-(methoxycarbonyl)-5-methylphenyl]hex-5-enoate]	7.13
COC(=O)CCCCCc1cc(C)c(OC)c(C(=O)OC)c1 [Methyl 6-[4-methoxy-5-(methoxycarbonyl)-3-methylphenyl]hexanoate]	5.76
COC(=O)CCC/C=C(/c1ccc(OC)c(OC)c1)c1cnccn1 [methyl (5Z)-6-(3,4-dimethoxyphenyl)-6-(pyrazin-2-yl)hex-5-enoate]	4.00
COC(=O)CCCC=C(c1ccc(OC)c(C(=O)OC)c1)c1ccc(OC)c(C(=O)OC)c1 [methyl 2-methoxy-5-{6-methoxy-1-[4-methoxy-3-(methoxycarbonyl)phenyl]-6-oxohex-1-en-1-yl}benzoate]	6.30
